The results in this text go back to patent US20240238282A1, “METHODS OF TREATING CANCER AND ISCHEMIA DISEASES BY INHIBITION AND INTERVENTION OF ATR PROLYL ISOMERIZATION” (The University of Toledo, priority 2022, published 2024).

The test system of the assay is patient derived PDCL5 cells of metastatic pancreatic cancer. The experiment in a line: Cell killing of patient-derived pancreatic cancer PDCL5 cells by gemcitabine, LB-100 or the combination. The format is cell-based, human. Particulars: single agent: gemcitabine 1.0 uM or LB-100 5 uM, 72 hours (FIG. 3E). As for the experimental part: FIGS. 3A-3E: Analysis of the antiapoptotic function of cis-ATR in human cancer via TCGA data mining. […] FIGS. 3F-3G show two patient-derived pancreatic cancer cells, PDCL5 and PDCL15, subjected to MTT assays after treating with the PDAC therapy drug gemcitabine (1.0 μM or 0.3 μM, respectively) and PP2A inhibitor LB-100 (5 μM), alone or in combination, for 72 hours. PANC-1 cells were treated with gemcitabine (1.0 μM) or FOLFIRINOX (5-FU, 10 μM, oxaliplatin, 0.1 μM, leucovorin, 0.15 μM, irinotecan, 0.1 μM), alone or in combination with LB-100 (1.0 μM), for 72 hours before the MTT assay.
To further validate the above observations are not at random, the 5-year survival probability (SP) of different subgroups was calculated for all 17 cancer types, and paired Wilcoxon rank-sum tests were performed. […] The SP difference of DAPK1 expression level is not significant, likely because DAPK indirectly regulates cis-ATR while ATR is a direct substrate of Pin1 and PP2A. […] This remains true even for the analysis regardless of cancer types (FIG. 3D). […]
MTT viability assays were performed according to the manufacturer's specifications (Cayman's MTT Proliferation Assay kit #10009365), and […]. […]

Regarding `CN1CCN(C(=O)C2C3CCC(O3)C2C(=O)O)CC1` (centres unmarked) [LB-100], the cell death induced entry was “little cell death”.

Turning to `Nc1ccn([C@@H]2O[C@H](CO)[C@@H](O)C2(F)F)c(=O)n1` [Gemcitabine, gemcitabine], the cell death induced entry is on record as “little cell death”.
